Like-named read-outs stand apart in the source and are kept apart here.
Legend:
E. cloacae CQ1941 = assay: Broth microdilution MIC/MBC, glycosides with or without polymyxins; type: cell-based; settings: for MIC: Enterobacter cloacae, CQ1941
K. pneumoniae CQ1942 = assay: Broth microdilution MIC, glycosides with or without polymyxins; type: cell-based, Klebsiella pneumoniae; settings: for MIC: Klebsiella pneumoniae, CQ1942
K. pneumoniae CQ1947 = assay: as above; type: cell-based, Klebsiella pneumoniae; settings: for MIC: Klebsiella pneumoniae, CQ1947
P. aeruginosa CQ4924 = assay: as above; type: cell-based, Pseudomonas aeruginosa; settings: for MIC: Pseudomonas aeruginosa, CQ4924
[1] = alone, read-out: MICA (MIC of each compound individually)
[2] = combination with the lowest FICI
[3] = compound + colistin, lowest FICI

Structure (SMILES): CCCCCCCCCCCCO[C@@H]1O[C@H](C)C[C@H](O)[C@H]1O [Compound 2, dodecyl 4,6-dideoxy-α/β-D-xylo-hexopyranoside]
- MIC of colistin in combination with the compound (E. cloacae CQ1941; Cpd conc. 0.4 μg/mL, strain D): 0.5 µg/mL
- MIC of colistin in combination with the compound (E. cloacae CQ1941; Cpd conc. 0.8 μg/mL, strain D): 0.5 µg/mL
- MIC of colistin in combination with the compound (E. cloacae CQ1941; Cpd conc. 3.125 μg/mL, strain D): 0.25 µg/mL
- MIC of colistin in combination with the compound (E. cloacae CQ1941; Cpd conc. 6.25 μg/mL, strain D): 0.25 µg/mL
- MIC of colistin in combination with the compound (E. cloacae CQ1941; Cpd conc. 12.5 μg/mL, strain D): 0.125 µg/mL
- MIC of colistin in combination with the compound (E. cloacae CQ1941; Cpd conc. […], strain D): 0.25 µg/mL
- MIC (E. cloacae CQ1941; agent alone, no adjuvant (polymyxin conc. 0), strain D, read-out: MIC): > 100 µg/mL
- MIC (E. cloacae CQ1941; [1]): > 100 µg/mL
- MIC of compound in combination with PMB (E. cloacae CQ1941; PMB 0.25 μg/mL, strain D): 12.5 µg/mL
- MIC of compound in combination with PMB (E. cloacae CQ1941; PMB 0.5 μg/mL, strain D): ≤ 0.1 µg/mL
- MIC of compound in combination with colistin (E. cloacae CQ1941; colistin 0.06 μg/mL, strain D): > 100 µg/mL
- MBC of compound in combination with colistin (E. cloacae CQ1941; colistin 0.125 μg/mL, strain D): 25 µg/mL
- MIC of compound in combination with colistin (E. cloacae CQ1941; colistin 0.125 μg/mL, strain D): 12.5 µg/mL
- MIC of compound in combination with colistin (E. cloacae CQ1941; colistin 0.25 μg/mL, strain D): 1.6 µg/mL
- MIC of compound in combination with colistin (E. cloacae CQ1941; colistin 0.5 μg/mL, strain D): ≤ 0.1 µg/mL
- MICA(A + B) (MIC of compound in combination with colistin) (E. cloacae CQ1941; [2]): 12.5 µg/mL
- MICB(A + B) (MIC of colistin in combination with compound) (E. cloacae CQ1941; [2]): 0.125 µg/mL
- FICI (E. cloacae CQ1941; [3]): 0.31
- MIC of colistin in combination with the compound (K. pneumoniae CQ1942; Cpd conc. 0.4 μg/mL, strain E): 0.5 µg/mL
- MIC of colistin in combination with the compound (K. pneumoniae CQ1942; Cpd conc. 0.8 μg/mL, strain E): 0.5 µg/mL
- MIC of colistin in combination with the compound (K. pneumoniae CQ1942; Cpd conc. 3.125 μg/mL, strain E): 0.5 µg/mL
- MIC of colistin in combination with the compound (K. pneumoniae CQ1942; Cpd conc. 6.25 μg/mL, strain E): 0.25 µg/mL
- MIC of colistin in combination with the compound (K. pneumoniae CQ1942; Cpd conc. 12.5 μg/mL, strain E): 0.25 µg/mL
- MIC of colistin in combination with the compound (K. pneumoniae CQ1942; Cpd conc. […], strain E): 0.5 µg/mL
- MIC (K. pneumoniae CQ1942; agent alone, no adjuvant (polymyxin conc. 0), strain E, read-out: MIC): > 100 µg/mL
- MIC (K. pneumoniae CQ1942; [1]): > 100 µg/mL
- MIC of compound in combination with PMB (K. pneumoniae CQ1942; PMB 0.25 μg/mL, strain E): > 100 µg/mL
- MIC of compound in combination with PMB (K. pneumoniae CQ1942; PMB 0.5 μg/mL, strain E): ≤ 0.1 µg/mL
- MIC of compound in combination with colistin (K. pneumoniae CQ1942; colistin 0.06 μg/mL, strain E): > 100 µg/mL
- MIC of compound in combination with colistin (K. pneumoniae CQ1942; colistin 0.125 μg/mL, strain E): > 100 µg/mL
- MIC of compound in combination with colistin (K. pneumoniae CQ1942; colistin 0.25 μg/mL, strain E): 6.3 µg/mL
- MIC of compound in combination with colistin (K. pneumoniae CQ1942; colistin 0.5 μg/mL, strain E): ≤ 0.1 µg/mL
- MICA(A + B) (MIC of compound in combination with colistin) (K. pneumoniae CQ1942; [2]): 6.25 µg/mL
- MICB(A + B) (MIC of colistin in combination with compound) (K. pneumoniae CQ1942; [2]): 0.25 µg/mL
- Interpretation (of FICI) (K. pneumoniae CQ1942; compound + colistin): Additive (from 0.5 to 1.0 were additive)
- FICI (K. pneumoniae CQ1942; [3]): 0.53
- MIC of colistin in combination with the compound (K. pneumoniae CQ1947; Cpd conc. 0.4 μg/mL, strain F): > 0.5 µg/mL
- MIC of colistin in combination with the compound (K. pneumoniae CQ1947; Cpd conc. 0.8 μg/mL, strain F): 0.5 µg/mL
- MIC of colistin in combination with the compound (K. pneumoniae CQ1947; Cpd conc. 3.125 μg/mL, strain F): 0.5 µg/mL
- MIC of colistin in combination with the compound (K. pneumoniae CQ1947; Cpd conc. 6.25 μg/mL, strain F): 0.5 µg/mL
- MIC of colistin in combination with the compound (K. pneumoniae CQ1947; Cpd conc. 12.5 μg/mL, strain F): 0.5 µg/mL
- MIC of colistin in combination with the compound (K. pneumoniae CQ1947; Cpd conc. […], strain F): 0.5 µg/mL
- MIC (K. pneumoniae CQ1947; agent alone, no adjuvant (polymyxin conc. 0), strain F, read-out: MIC): > 100 µg/mL
- MIC (K. pneumoniae CQ1947; [1]): > 100 µg/mL
- MIC of compound in combination with PMB (K. pneumoniae CQ1947; PMB 0.25 μg/mL, strain F): > 100 µg/mL
- MIC of compound in combination with PMB (K. pneumoniae CQ1947; PMB 0.5 μg/mL, strain F): 0.8 µg/mL
- MIC of compound in combination with colistin (K. pneumoniae CQ1947; colistin 0.06 μg/mL, strain F): > 100 µg/mL
- MIC of compound in combination with colistin (K. pneumoniae CQ1947; colistin 0.125 μg/mL, strain F): > 100 µg/mL
- MIC of compound in combination with colistin (K. pneumoniae CQ1947; colistin 0.25 μg/mL, strain F): > 100 µg/mL
- MIC of compound in combination with colistin (K. pneumoniae CQ1947; colistin 0.5 μg/mL, strain F): 0.8 µg/mL
- MICA(A + B) (MIC of compound in combination with colistin) (K. pneumoniae CQ1947; [2]): 0.8 µg/mL
- MICB(A + B) (MIC of colistin in combination with compound) (K. pneumoniae CQ1947; [2]): 0.5 µg/mL
- Interpretation (of FICI) (K. pneumoniae CQ1947; compound + colistin): Indifferent (1.0 to 4.0 were indifferent)
- FICI (K. pneumoniae CQ1947; [3]): 1.004
- MIC of colistin in combination with the compound (P. aeruginosa CQ4924; Cpd conc. 0.4 μg/mL, strain H): > 0.5 µg/mL
- MIC of colistin in combination with the compound (P. aeruginosa CQ4924; Cpd conc. 0.8 μg/mL, strain H): > 0.5 µg/mL
- MIC of colistin in combination with the compound (P. aeruginosa CQ4924; Cpd conc. 3.125 μg/mL, strain H): > 0.5 µg/mL
- MIC of colistin in combination with the compound (P. aeruginosa CQ4924; Cpd conc. 6.25 μg/mL, strain H): 0.5 µg/mL
- MIC of colistin in combination with the compound (P. aeruginosa CQ4924; Cpd conc. 12.5 μg/mL, strain H): 0.5 µg/mL
- MIC of colistin in combination with the compound (P. aeruginosa CQ4924; Cpd conc. […], strain H): > 0.5 µg/mL
- MIC of compound in combination with PMB (P. aeruginosa CQ4924; PMB 0.25 μg/mL, strain H): > 100 µg/mL
- MIC (P. aeruginosa CQ4924; agent alone, no adjuvant (polymyxin conc. 0), strain H, read-out: MIC): > 100 µg/mL
- MIC (P. aeruginosa CQ4924; [1]): > 100 µg/mL
- MIC of compound in combination with colistin (P. aeruginosa CQ4924; colistin 0.06 μg/mL, strain H): > 100 µg/mL
- MIC of compound in combination with colistin (P. aeruginosa CQ4924; colistin 0.125 μg/mL, strain H): > 100 µg/mL
- MIC of compound in combination with colistin (P. aeruginosa CQ4924; colistin 0.25 μg/mL, strain H): > 100 µg/mL
- MIC of compound in combination with colistin (P. aeruginosa CQ4924; colistin 0.5 μg/mL, strain H): 6.3 µg/mL
- MICA(A + B) (MIC of compound in combination with colistin) (P. aeruginosa CQ4924; [2]): 6.25 µg/mL
- MICB(A + B) (MIC of colistin in combination with compound) (P. aeruginosa CQ4924; [2]): 0.5 µg/mL
- Interpretation (of FICI) (P. aeruginosa CQ4924; compound + colistin): Additive (from 0.5 to 1.0 were additive)
- FICI (P. aeruginosa CQ4924; [3]): 0.53

Reference: PMC10817917, “Alkyl deoxyglycoside-polymyxin combinations against critical priority carbapenem-resistant gram-negative bacteria” (Scientific Reports, 2024)
